According to ChEMBL document CHEMBL3885861, “Open TG-GATES”:

Organism: Rattus norvegicus
Test: Open TG-GATES - Regimen: Single
Assay type: toxicity, organism-based, Sprague-Dawley
Parameters: regimen Single, gender Male, age 6 weeks
Conditions: in vivo, po, 100 mg/kg, route gavage, dose level Middle; for APTT / Bas / Eos / Fbg / Hb / Ht / Lym / MCH / MCHC / MCV / Mono / Neu / PT / Plat / RBC / Ret / WBC: tissue Blood; for KIDNEY_L / KIDNEY_R / KIDNEY_TOTAL: tissue Kidney; for LIVER: tissue Liver; for A/G / ALP / ALT / AST / BUN / CRE / Ca / Cl / DBIL / GLC / IP / K / LDH / Na / PL / RALB / TBIL / TC / TG / TP / gamma-GTP: tissue Plasma

CC[C@H]1[C@@H]2C[C@H]3[C@@H]4N(C)c5ccccc5[C@]45C[C@@H]([C@@H]2[C@H]5O)N3[C@@H]1O [AJMALINE]
TERMINAL_BW (3 h): 195.2 g | APTT (3 h): 16.3 s | Bas (3 h): 0% | Eos (3 h): 0.6% | Fbg (3 h): 201.2 mg/dL | Hb (3 h): 13.1 g/dL | Ht (3 h): 40.1% | Lym (3 h): 80.2% | MCH (3 h): 21.8 pg | MCHC (3 h): 32.7% | MCV (3 h): 66.7 fL | Mono (3 h): 6.8% | Neu (3 h): 12.4% | PT (3 h): 11.8 s | Plat (3 h): 115.9 x10_4/uL | RBC (3 h): 602.8 x10_4/ul | Ret (3 h): 12.1% | WBC (3 h): 109.1 x10_2/uL | KIDNEY_L (3 h): 0.9 g | KIDNEY_R (3 h): 0.9 g | KIDNEY_TOTAL (3 h): 1.8 g | LIVER (3 h): 9.6 g | A/G (3 h): 2.4 | ALP (3 h): 824.8 IU/L | ALT (3 h): 33.4 IU/L | AST (3 h): 64.6 IU/L | BUN (3 h): 11.6 mg/dL | CRE (3 h): 0.4 mg/dL | Ca (3 h): 11.1 mg/dL | Cl (3 h): 103 meq/L | DBIL (3 h): 0.052 mg/dL | GLC (3 h): 198.4 mg/dL | IP (3 h): 9.1 mg/dL | K (3 h): 4.5 meq/L | LDH (3 h): 128 IU/L | Na (3 h): 138.2 meq/L | PL (3 h): 140.4 mg/dL | RALB (3 h): 3.6 g/dL | TBIL (3 h): 0.4 mg/dL | TC (3 h): 75 mg/dL | TG (3 h): 65.6 mg/dL | TP (3 h): 5.2 g/dL | gamma-GTP (3 h): 1.6 IU/L | TERMINAL_BW (6 h): 187.8 g | APTT (6 h): 17 s | Bas (6 h): 0% | Eos (6 h): 0.6% | Fbg (6 h): 193.4 mg/dL | Hb (6 h): 12.9 g/dL | Ht (6 h): 39% | Lym (6 h): 84.2% | MCH (6 h): 21.8 pg | MCHC (6 h): 33.1% | MCV (6 h): 66 fL | Mono (6 h): 5.8% | Neu (6 h): 9% | PT (6 h): 12.1 s | Plat (6 h): 109.9 x10_4/uL | RBC (6 h): 591.4 x10_4/ul | Ret (6 h): 11.2% | WBC (6 h): 76.5 x10_2/uL | KIDNEY_L (6 h): 0.9 g | KIDNEY_R (6 h): 0.9 g | KIDNEY_TOTAL (6 h): 1.8 g | LIVER (6 h): 8.5 g | A/G (6 h): 2.2 | ALP (6 h): 849 IU/L | ALT (6 h): 31.6 IU/L | AST (6 h): 67.8 IU/L | BUN (6 h): 9 mg/dL | CRE (6 h): 0.5 mg/dL | Ca (6 h): 11 mg/dL | Cl (6 h): 102.6 meq/L | DBIL (6 h): 0.044 mg/dL | GLC (6 h): 191 mg/dL | IP (6 h): 9.9 mg/dL | K (6 h): 4.6 meq/L | LDH (6 h): 99.2 IU/L | Na (6 h): 138.4 meq/L | PL (6 h): 140.2 mg/dL | RALB (6 h): 3.5 g/dL | TBIL (6 h): 0.4 mg/dL | TC (6 h): 83.6 mg/dL | TG (6 h): 60.4 mg/dL | TP (6 h): 5.2 g/dL | gamma-GTP (6 h): 1 IU/L | TERMINAL_BW (9 h): 191.7 g | APTT (9 h): 16.7 s | Bas (9 h): 0% | Eos (9 h): 1.2% | Fbg (9 h): 206 mg/dL | Hb (9 h): 12.9 g/dL | Ht (9 h): 39.2% | Lym (9 h): 75% | MCH (9 h): 21.6 pg | MCHC (9 h): 32.8% | MCV (9 h): 65.6 fL | Mono (9 h): 7.8% | Neu (9 h): 16.2% | PT (9 h): 11.9 s | Plat (9 h): 115.9 x10_4/uL | RBC (9 h): 597 x10_4/ul | Ret (9 h): 9.5% | WBC (9 h): 88.2 x10_2/uL | KIDNEY_L (9 h): 0.9 g | KIDNEY_R (9 h): 1 g | KIDNEY_TOTAL (9 h): 1.9 g | LIVER (9 h): 8.1 g | A/G (9 h): 2.6 | ALP (9 h): 786.2 IU/L | ALT (9 h): 33 IU/L | AST (9 h): 67.2 IU/L | BUN (9 h): 11 mg/dL | CRE (9 h): 0.5 mg/dL | Ca (9 h): 10.3 mg/dL | Cl (9 h): 104.6 meq/L | DBIL (9 h): 0.066 mg/dL | GLC (9 h): 190.6 mg/dL | IP (9 h): 10.6 mg/dL | K (9 h): 4.8 meq/L | LDH (9 h): 107 IU/L | Na (9 h): 138 meq/L | PL (9 h): 138 mg/dL | RALB (9 h): 3.7 g/dL | TBIL (9 h): 0.3 mg/dL | TC (9 h): 79.8 mg/dL | TG (9 h): 46 mg/dL | TP (9 h): 5.2 g/dL | gamma-GTP (9 h): 0.2 IU/L | TERMINAL_BW (24 h): 205.6 g | APTT (24 h): 16.3 s | Bas (24 h): 0% | Eos (24 h): 1% | Fbg (24 h): 205.6 mg/dL | Hb (24 h): 12.7 g/dL | Ht (24 h): 38.5% | Lym (24 h): 81.2% | MCH (24 h): 21.8 pg | MCHC (24 h): 33.1% | MCV (24 h): 65.9 fL | Mono (24 h): 5.8% | Neu (24 h): 12.4% | PT (24 h): 11.6 s | Plat (24 h): 106.5 x10_4/uL | RBC (24 h): 585.2 x10_4/ul | Ret (24 h): 11.1% | WBC (24 h): 105.9 x10_2/uL | KIDNEY_L (24 h): 1 g | KIDNEY_R (24 h): 1 g | KIDNEY_TOTAL (24 h): 2 g | LIVER (24 h): 10.2 g | A/G (24 h): 2.2 | ALP (24 h): 869.2 IU/L | ALT (24 h): 39.4 IU/L | AST (24 h): 67.2 IU/L | BUN (24 h): 17.4 mg/dL | CRE (24 h): 0.6 mg/dL | Ca (24 h): 10.9 mg/dL | Cl (24 h): 102.2 meq/L | DBIL (24 h): 0.03 mg/dL | GLC (24 h): 204.2 mg/dL | IP (24 h): 8.4 mg/dL | K (24 h): 4.5 meq/L | LDH (24 h): 105.2 IU/L | Na (24 h): 139.8 meq/L | PL (24 h): 142.6 mg/dL | RALB (24 h): 3.7 g/dL | TBIL (24 h): 0.4 mg/dL | TC (24 h): 79.4 mg/dL | TG (24 h): 81.6 mg/dL | TP (24 h): 5.4 g/dL | gamma-GTP (24 h): 0.8 IU/L
